Measured values from patent publication US11905231B1, “Solid forms, salts and polymorphs of anti-fibrotic compounds” (Certa Therapeutics Pty Ltd, priority 2023, dated 2024).
Counter-ions that a name gives are not always drawn. Like-named read-outs stand apart in the source and are kept apart here.

Experiments:
[1] = 37° C.
Description: (§1) The term “FaSSIF media” refers to Fasted State Simulated Intestinal Fluid media prepared using FaSSIF powder and buffer concentrate obtained from the commercial source Biorelevant (London, UK, biorelevant.com). The FaSSIF powder contains sodium taurocholate, lecithin, sodium chloride, monobasic sodium phosphate and sodium hydroxide. The FaSSIF media is prepared as described at https://biorelevant.com/learning_center/what-is-fassif/. Briefly the pH6.5 buffer containing 0.42 g of NaOH, 3.95 g of NaH2PO4·H2O and 6.19 g of NaCl was dissolved in 0.9 L of purified water and the pH of the solution was adjusted to 6.5 using sodium hydroxide 1N or hydrochloric acid 1N and made up to volume (1 L) with purified water at room temperature. Dissolve 2.24 g of the FaSSIF powder in 0.5 L of the pH6.5 buffer, stirring until the powder is completely dissolved, and then make up to volume (1 L) with buffer at room temperature.
(§2) The samples were stirred using a magnetic stirrer at 37° C. […] The samples were filtered via centrifugation (12,000 rpm, 5 min). The supernatant was diluted (2×) with HPLC grade solvent and analyzed by HPLC.
HPLC gradient was as follows:
(§3) The pH 1.2, pH 4.5, and pH 6.8 media were prepared as standard aqueous buffered solutions following USP <39>.
(§4) As used herein, the term “FaSSIF media” means Fasted Stated Simulated Intestinal Fluid media prepared according to the method known in the art.

in vivo = conditions: rat, in vivo, po, 20 mg/kg
Description: Bioavailability is determined by the equation AUC=F·D/CLT, wherein AUC is the area under the plot of plasma concentration, F is the absolute bioavailability, D is the dose, and CLT is the total clearance.
The rats received a single oral dose of 20 mg/kg body weight (b.w.). The doses were prepared as a 2.0 mg/mL suspension in a vehicle of 20 mM Na2HPO4 buffer containing 5% (v/v) DMSO, 0.4% (v/v) 1M NaOH and 0.4% (v/v) Tween 80 and a dose volume of 10 mL/kg b.w.
Pharmacokinetic analysis was performed on the average plasma concentration for each time point.

[2] = Thermogravimetric Analysis (TGA) weight loss; format: physicochemical; conditions: for Weight loss (TGA): when heated from about 25° C. to about 120° C. (text)
[3] = Dynamic Vapor Sorption (DVS) hygroscopicity; conditions: at 80% RH, 25° C., measured during 0% RH to 95% RH increase
Description: The change in water content is recited as a % change in mass of the starting sample and all such water sorption (DVS) values recited herein will be understood to explicitly include numerical values within a +/−0.2% variance.
The humidity is held constant at 30% RH until the mass change of the sample reaches equilibrium, as determined by the rate of change of weight being 0.01%/minute or less. The humidity is then changed to the next step value and the consequent mass change measured, and so on.
The hygroscopicity values recited herein refer to total water gain since the start of the experiment only and so may not necessarily be equivalent to the actual total water content of the sample.

physchem = conditions: 37 °C, thermodynamic from solid; for solubility at 1 h: 1 h Solubility; for solubility at 24 h: 24 h Solubility
Description: as §1, §2
HPLC gradient was as follows:
as §3, §4

[4] = Stability of the ethanolamine salt under accelerated and long-term storage conditions; format: physicochemical; conditions: for API (Purity_) / Total Impurity: HPLC
Description: The samples were assayed by HPLC at the start, after 1 week, and after 2 weeks at the indicated accelerated storage conditions, or after 36 days at room temperature storage. For HPLC analysis, the samples were diluted with 10 mL of TFA/DMSO/ACN (0.1/10/90, v/v/v) to ˜1 mg/mL and analyzed by HPLC.
The samples were also analyzed by XRPD at initial, 1 week, 2 weeks and 36 day time points.

[5] = pH 1.2 aqueous buffer, pH 1.2, simulated gastric fluid, pH 1.2 medium
[6] = pH 4.5 aqueous buffer, pH 4.5 medium
[7] = 40° C., 75% RH, open vial, 1 week
[8] = 40° C., 75% RH, open vial, 2 weeks

C#CCOc1ccc(/C=C/C(=O)Nc2ccccc2C(=O)O)cc1OC [Ethanolamine salt]
1 h Solubility ([1]; FaSSIF (pH 7.5)): >7990 µg/mL | 24 h Solubility ([1]; FaSSIF (pH 7.5)): >7990 µg/mL | 1 h Solubility ([1]; FaSSIF): 238 µg/mL | 24 h Solubility ([1]; FaSSIF): 263 µg/mL | 1 h Solubility ([1]; FeSSIF (pH 7.8)): >8020 µg/mL | 24 h Solubility ([1]; FeSSIF (pH 7.8)): >8020 µg/mL | 1 h Solubility ([1]; FeSSIF): 12 µg/mL | 24 h Solubility ([1]; FeSSIF): 25 µg/mL | 1 h Solubility ([1]; pH 6.8 medium): 116 µg/mL | AUCExtr (in vivo; Sprague-Dawley): 1.92% | AUCInf (in vivo; Sprague-Dawley): 405.006 µg·h/mL | AUClast (in vivo; Sprague-Dawley): 396.535 µg·h/mL | tmax (in vivo; Sprague-Dawley): 1.00 h | Mean concentration (plasma) (in vivo; Sprague-Dawley, 0.5 h): 37133 ng/mL | Mean concentration (plasma) (in vivo; Sprague-Dawley, 1 h): 52733 ng/mL | Mean concentration (plasma) (in vivo; Sprague-Dawley, 2 h): 40300 ng/mL | Mean concentration (plasma) (in vivo; Sprague-Dawley, 4 h): 25900 ng/mL | Mean concentration (plasma) (in vivo; Sprague-Dawley, 8 h): 18767 ng/mL | Mean concentration (plasma) (in vivo; Sprague-Dawley, 24 h): 1262 ng/mL | half-life (in vivo; Sprague-Dawley, t1/2): 4.32 h | Plasma concentration at 24 h post dose compared to the other tested compounds (in vivo): highest plasma concentrations | Weight loss by TGA ([2]; from 0° C. to 120° C.): 0.10% from 0 °C to | Weight loss by TGA ([2]; from r.t. to 120° C.): 0.10% from r.t. to | Total weight loss by TGA ([2]; from r.t. to 350° C. (or to decomposition if lower)): 0.10% total weight | Weight loss (TGA) ([2]; listed as ethanolamine): 0.10% | Weight loss (TGA) ([2]; listed as ethanolamine salt): about 0.1% | Hygroscopicity by DVS [3]: 0.49% | Hygroscopicity by DVS ([3]; listed as ethanolamine): 0.49% | Hygroscopicity by DVS ([3]; listed as ethanolamine salt): about 0.49% | solubility at 1 h (physchem; [5]): 8 µg/mL | solubility at 24 h (physchem; [5]): 3 µg/mL | solubility at 1 h (physchem; [6]): 28 µg/mL | solubility at 24 h (physchem; [6]): 5 µg/mL | solubility at 24 h (physchem; pH 6.8 aqueous buffer, pH 6.8 medium): 88 µg/mL | Appearance [4, 7]: White | API (Purity_) [4, 7]: 99.73% | Total Impurity [4, 7]: 0.27% | Appearance [4, 8]: White | API (Purity_) [4, 8]: 99.72% | Total Impurity [4, 8]: 0.28% | Appearance ([4]; 60° C., open vial, 1 week): White | API (Purity_) ([4]; 60° C., open vial, 1 week): 99.73% | Total Impurity ([4]; 60° C., open vial, 1 week): 0.27% | Appearance ([4]; 60° C., open vial, 2 weeks): White | API (Purity_) ([4]; 60° C., open vial, 2 weeks): 99.71% | Total Impurity ([4]; 60° C., open vial, 2 weeks): 0.29% | Appearance ([4]; Initial): White | API (Purity_) ([4]; Initial): 99.75% | Total Impurity ([4]; Initial): 0.26% | Changes in impurity content or crystallinity ([4]; accelerated storage (1-2 weeks) or long-term storage (room temperature, 36 days), HPLC and XRPD): no significant changes
